Values quoted from earlier work, collected in EP4484428A1, “CUCURBITURIL DERIVATIVES FOR RADIOLABELING, PROCESSES OF PRODUCTION AND USES THEREOF” (Université de Bourgogne, priority 2023, dated 2025).

System: (strept)avidin
Settings: biotin-(strept)avidin pair, association constant

## O=C(O)CCCC[C@@H]1SC[C@@H]2NC(=O)N[C@@H]21 [biotin]
  affinity (K): 10^15 M^-1
